Assay: Release of ibuprofen from fibrin clot in an in vitro setting
Format: physicochemical
Method: Release of ibuprofen from fibrin clot in an in vitro setting: A similar procedure was applied for ibuprofen embedded in fibrin sealant and for PLGA-ibuprofen embedded in fibrin sealant. […] This step was repeated 15 times (days). The ibuprofen concentration was measured by its UV signature, that is, UV absorption at 221 nm.

- release profile: less than controlled manner
Compound: CC(C)Cc1ccc(C(C)C(=O)O)cc1 (stereo not shown) [Ibuprofen, ibuprofen]
